Results published in patent US10487068B2, “Pyridazine derivatives as RORc modulators” (Genentech, Inc., priority 2015, dated 2019).

Biological target: T1, RORc ligand binding domain (Homo sapiens, UniProt P51449)
T1 sequence (P51449 269-508 limits assumed): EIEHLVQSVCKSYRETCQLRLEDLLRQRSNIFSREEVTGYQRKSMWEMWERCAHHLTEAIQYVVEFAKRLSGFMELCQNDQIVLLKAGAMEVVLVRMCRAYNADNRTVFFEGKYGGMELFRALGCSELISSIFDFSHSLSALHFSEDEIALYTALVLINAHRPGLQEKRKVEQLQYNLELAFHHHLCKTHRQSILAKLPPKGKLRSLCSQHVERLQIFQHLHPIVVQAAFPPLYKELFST
Experiment: In Vitro RORc Ligand Binding Assay
Conditions: RORc IC50, radioligand 25-[3H]hydroxycholesterol 6 nM; 0.6 ug/mL RORc receptor; 3 h at 25° C.

Structure (SMILES)	IC50 [nM]
CC1(C)[C@H]2CC[C@]1(c1cnnc(N)n1)c1nnc(-c3c(F)cccc3F)cc12 [Example 127, 5-((5R,8S)-3-(2,6-difluorophenyl)-9,9-dimethyl-5,6,7,8-tetrahydro-5,8-methanocinnolin-8-yl)-1,2,4-triazin-3-amine]	109
CC(C)(O)c1cncc([C@@]23CC[C@@H](c4cc(-c5c(F)cccc5F)nnc42)C3(C)C)n1 [Example 128, 2-(6-((5R,8S)-3-(2,6-difluorophenyl)-9,9-dimethyl-5,6,7,8-tetrahydro-5,8-methanocinnolin-8-yl)pyraizn-2-yl)propan-2-ol]	21.5
CC1(C)[C@H]2CC[C@]1(c1ccnc(NCC3(O)COC3)n1)c1nnc(-c3c(F)cccc3F)cc12 [Example 132]	33.2
CC(C)(O)CNC(=O)c1nccc([C@@]23CC[C@@H](c4cc(-c5c(F)cccc5F)nnc42)C3(C)C)n1 [Example 136]	37.1
CC1(C)[C@H]2CC[C@]1(c1cccc(S(=O)(=O)N3CCOCC3)n1)c1nnc(-c3c(F)cccc3F)cc12 [Example 137, 4-((6-((5R,8S)-3-(2,6-difluorophenyl)-9,9-dimethyl-5,6,7,8-tetrahydro-5,8-methanocinnolin-8-yl)pyridin-2-yl)sulfonyl)morpholine]	14.6
Cc1nnc(-c2nccc([C@@]34CC[C@@H](c5cc(-c6c(F)cccc6F)nnc53)C4(C)C)n2)o1 [Example 138]	41.9

Next, values leading:

IC50 [nM]	Structure (SMILES)
56.7	CC1(C)[C@H]2CC[C@]1(c1cncc(CNC(=O)CO)n1)c1nnc(-c3c(F)cccc3F)cc12 [Example 129, N-((6-((5R,8S)-3-(2,6-difluorophenyl)-9,9-dimethyl-5,6,7,8-tetrahydro-5,8-methanocinnolin-8-yl)pyrazin-2-yl)methyl)-2-hydroxyacetamide]
55.3	CC1(C)[C@H]2CC[C@]1(c1cccc(C(=O)NC(CO)CO)n1)c1nnc(-c3c(F)cccc3F)cc12 [Example 130, 6-((5R,8S)-3-(2,6-difluorophenyl)-9,9-dimethyl-5,6,7,8-tetrahydro-5,8-methanocinnolin-8-yl)-N-(1,3-dihydroxypropan-2-yl)picolinamide]
44.4	CC1(C)[C@H]2CC[C@]1(c1cccc(C(=O)NCC3(O)COC3)n1)c1nnc(-c3c(F)cccc3F)cc12 [Example 131, 6-((5R,8S)-3-(2,6-difluorophenyl)-9,9-dimethyl-5,6,7,8-tetrahydro-5,8-methanocinnolin-8-yl)-N-((3-hydroxyoxetan-3-yl)methyl)picolinamide]
59.2	CC(=O)NCc1cncc([C@@]23CC[C@@H](c4cc(-c5c(F)cccc5F)nnc42)C3(C)C)n1 [Example 133, N-((6-((5R,8S)-3-(2,6-difluorophenyl)-9,9-dimethyl-5,6,7,8-tetrahydro-5,8-methanocinnolin-8-yl)pyrazin-2-yl)methyl)acetamide]
18.8	CC1(C)[C@H]2CC[C@]1(c1cncc(CNS(C)(=O)=O)n1)c1nnc(-c3c(F)cccc3F)cc12 [Example 134, N-((6-((5R,8S)-3-(2,6-difluorophenyl)-9,9-dimethyl-5,6,7,8-tetrahydro-5,8-methanocinnolin-8-yl)pyrazin-2-yl)methyl)methanesulfonamide]
23.3	CC1(C)[C@H]2CC[C@]1(c1cncc(-c3nc(CO)co3)n1)c1nnc(-c3c(F)cccc3F)cc12 [Example 135, (2-(6-((5R,8S)-3-(2,6-difluorophenyl)-9,9-dimethyl-5,6,7,8-tetrahydro-5,8-methanocinnolin-8-yl)pyrazin-2-yl)oxazol-4-yl)methanol]
65.5	CC1(C)[C@H]2CC[C@]1(c1cncc(C(=O)NCc3nnc[nH]3)n1)c1nnc(-c3c(F)cccc3F)cc12 [Example 139, N-((4H-1,2,4-triazol-3-yl)methyl)-6-((5R,8S)-3-(2,6-difluorophenyl)-9,9-dimethyl-5,6,7,8-tetrahydro-5,8-methanocinnolin-8-yl)pyrazine-2-carboxamide]
